Assay results: US20240261296A1, “THERAPEUTIC MODALITIES FOR INHIBITING PANCREATIC BETA CELL IMPAIRMENT AND TREATING DIABETES” (Hadasit Medical Research Serices & Development Ltd., priority 2021, published 2024)

How the values were obtained:
Format in all cases: in vivo
C57Bl/6 mice = test: acute toxicity, IP and oral; details: for physical or behavioral differences: IP 3 mg/kg or gavage total 9 mg/kg; for differences between experimental groups and saline/DMSO control mice (summary): IP 3 mg/kg/mouse or gavage 9 mg/kg/mouse
Protocol: The safety of compounds C5 and C13 was examined in various in vivo settings, and compared to that of L-798106. The compounds were administered by oral gavage or intraperitoneal (IP) injection to C57Bl/6 mice, and acute toxicity, liver and kidney functions and blood glucose and insulin levels were evaluated. Additional safety experiments and measurements of various blood parameters in diabetic mice are further presented in Example 12 below.
Acute toxicity—IP and oral. For acute toxicity studies, a single IP dose of 3 mg/kg, or three oral doses (total of 9 mg/Kg) were administered. No mortality was observed by the end of the monitoring period (two days for IP administration or four days for oral administration), and all animals survived both modes of administration. No physical or behavioral differences were observed between the different groups and between the two modes of drug administration. Pictures of the sites of IP injection were taken when animals were sacrificed and no damage was observed.
Male mice (n=8 per group) were assigned to the following test groups. A dosage of 3 mg/kg/mouse was administered daily for 3 consecutive days in 200 μl of:
Group A: saline and DMSO carrier (referred to throughout the drawings and examples describing the in vivo experiment as “Control-Saline”, “Vehicle”, “Saline” or “Control”), at the equivalent concentration administered the other test groups (2.5%). Group B: Compound 1b (C5) at 3 mg/Kg: (total of 9 mg/Kg). Group C: Compound 1a (C13) at 3 mg/Kg: (total of 9 mg/Kg). Group D: L-798106 at 3 mg/Kg: (total of 9 mg/Kg).

[1] = liver function parameters in sera of C57Bl/6 mice
Protocol: Blood was collected by cardiac puncture, and 50 μl were collected in EDTA containing tubes for cell blood count (CBC). Further, 200-300 μl of blood was centrifuged and serum was collected for biochemical analysis. C. Effects of orally administered compounds on liver function parameters: The blood levels of albumin, the liver aspartate transaminase (AST) and alanine transaminase (ALT) were measured in the sera obtained from mice 24 h after the third gavage with saline/DMSO (Control Saline); 3 mg/kg/day Compound C5; Compound C13 or the EP3 antagonist L-798106. Results are presented in FIG. 11A for Albumin, FIG. 11B for AST, and FIG. 11C for ALT. […] All p-values >0.05. C. Liver function parameters: Blood levels of albumin (FIG. 14A), liver transaminases: aspartate transaminase (AST, FIG. 14B) and alanine transaminase (ALT, FIG. 14C), as well as bilirubin, were measured in sera obtained from mice 24 h after injection of either Saline/DMSO (Control Saline); C5; C13 or L-798106. […] Typically, this biomarker levels rise with liver injury and help monitor function under drugs treatment. Here a decrease in the levels of ALT in the serum of L-798106- and C13-treated mice, is not considered to indicate liver damage. Bilirubin<1 μM was measured in all test groups.

[2] = lipid parameters in sera of db/db mice; details: 8 weeks of treatment; for blood triglyceride levels: vs vehicle
Protocol: At the end of the 8 week-long period of treatment as described in Example 9, mice were sacrificed and blood samples were collected, and analyzed for different parameters as detailed below.
Lipid parameters in sera. Mice lipid profiles were assessed by measuring triglycerides and total cholesterol levels in the sera of the treated mice. The results for the triglycerides and cholesterol levels in db/db mice are presented in FIGS. 24A-24B respectively, in which, each treatment is graphically represented as described in Example 9, for each group n=5, data is presented ±SEM. Statistical analysis between each treated-group compared to vehicle was performed p-value for C5=0.06, for C13=0.02 and p >0.05 for the rest of the tests.

[3] = kidney function parameters in sera of C57Bl/6 mice
Protocol: Blood was collected by cardiac puncture, and 50 μl were collected in EDTA containing tubes for cell blood count (CBC). Further, 200-300 μl of blood was centrifuged and serum was collected for biochemical analysis.
D. Effects of orally administered compounds on kidney function parameters: Creatinine and Urea levels were measured in the sera obtained from mice 24 h after the third gavage with saline/DMSO (Control Saline); 3 mg/kg/day Compound C5; Compound C13 or the EP3 antagonist L-798106. […] 12 B for Urea.
D. Kidney function parameters: Creatinine (FIG. 15A) and Urea (FIG. 15B) were measured in sera obtained from mice, 24 h after injection of either Saline/DMSO (Control Saline), Compound C5 or L-798106.

[4] = oral 3 mg/kg/day, 24 h after third gavage

SMILES | physical or behavioral differences (C57Bl/6 mice) | differences between experimental groups and saline/DMSO control mice (summary) (C57Bl/6 mice) | alanine transaminase (ALT) ([1]; IP, 24 h after injection) | albumin ([1]; IP, 24 h after injection) | aspartate transaminase (AST) ([1]; IP, 24 h after injection) | alanine transaminase (ALT) [1, 4] | albumin [1, 4] | aspartate transaminase (AST) [1, 4] | total cholesterol levels [2] | blood triglyceride levels [2] | Creatinine ([3]; IP, 24 h after injection) | Urea ([3]; IP, 24 h after injection) | Creatinine [3, 4] | Urea [3, 4]
CC[C@H](C)c1ccc(S(=O)(=O)Nc2ccccc2C(=O)N2C[C@@H](C)O[C@@H](C)C2)cc1 [Compound C5, 4-((S)-sec-butyl)-N-(2-((2S,6R)-2,6-dimethylmorpholine-4-carbonyl)phenyl)benzenesulfonamide] | No physical or clinical behavioral differences | no significant differences were observed | no statistically significant differences | no statistically significant differences | no statistically significant differences | no statistically significant differences | no statistically significant differences | no statistically significant differences | No effect on total cholesterol levels | significant reduction | no statistically significant differences | no statistically significant differences | No statistically significant differences | No statistically significant differences
CC[C@@H]1CC[C@H](C)N1C(=O)c1cccc(NS(=O)(=O)c2ccc(C)c(F)c2)c1 [Compound C13, N-(3-((2R,5S)-2-ethyl-5-methylpyrrolidine-1-carbonyl)phenyl)-3-fluoro-4-methylbenzenesulfonamide] | No physical or clinical behavioral differences | no significant differences were observed | lower concentrations of alanine transaminase | no statistically significant differences | no statistically significant differences | no statistically significant differences | no statistically significant differences | no statistically significant differences | No effect on total cholesterol levels | significant reduction | p-value >0.05 | p-value >0.05 | No statistically significant differences | No statistically significant differences
COc1ccc(Br)cc1S(=O)(=O)NC(=O)/C=C/c1ccccc1Cc1ccc2ccccc2c1 [Compound L-798106, (2E)-N-[(5-bromo-2-methoxyphenyl)sulfonyl]-3-[2-(2-naphthalenylmethyl)phenyl]-2-propenamide, reference compound] | No physical or clinical behavioral differences | no significant differences were observed | lower concentrations of alanine transaminase | no statistically significant differences | no statistically significant differences | no statistically significant differences | no statistically significant differences | no statistically significant differences | No effect on total cholesterol levels | did not exhibit a statistically-significant reduction | no statistically significant differences | no statistically significant differences | No statistically significant differences | No statistically significant differences
